# Data from US20040006070A1, “Intraspinal continuous infusion of midazolam hydrochloride for the treatment of pain” (priority 2002, published 2004).
# Experiments:
# [1] = Toxicity in neuropathic pain sheep: clinical signs, necropsy, histopathology; type: in vivo; conditions: sheep #604 Clint
# Text: Animals will be observed daily for any signs of clinical toxicity such as limping and loss of appetite. At necropsy the spinal cord will be examined for any gross changes. Histopathologic evaluation will be performed on all animals after drug studies are complete. These examinations will detect any neurotoxicity that may be present due to the spinal infusion of midazolam.
# [2] = in vivo, cited from earlier work
# [3] = tested on: neuropathic pain model in the sheep; assay: Neuropathic pain model in sheep, behavior monitoring (Observer 3.0) with visual analog pain score; type: in vivo
# Text: The neuropathic pain model in the sheep is created by placing four tight ligatures around the median, radial, or ulnar nerve (or a combination thereof) with 0-chromic gut suture. This method produces a chronic painful peripheral mononeuropathy which may be related to those conditions seen in humans with causalgia and reflex sympathetic dystrophy.
# To evaluate animal behavior, the Observer 3.0 software (Noldus Information Technology, The Netherlands) was used to aid docmentation of a daily record of multiple traits. […] The behavior was then interpreted into a visual analog pain score (VAS), where 0 represents no pain and 100 represents severe pain.
# Approximately three days prior to surgery each sheep will undergo a 15-minute baseline behavior evaluation. The observations made in this evaluation include, a computerized behavior software recording (the Observer) for 15minutes—gait monitoring—and recording of pain perception via visual analog scale-using the Observer. In some animals, recording of vital signs (blood pressure, heart rate, respirations per minute) will be performed using the Observer. Baseline values for pain perception are recorded via the mechanical stimulus device and/or behavior monitoring will also be performed at this time.
# The sheep will be observed daily postoperatively. […] Observations of neuropathic pain development include changes in ambulation, alertness, appetite, urination, defecation, herding activity, body temperature and pain behaviors. This daily behavior is recorded utilizing the observer (an observational software system).
structure (smiles),measurement,setting,value
"CN1CC[C@]23c4c5ccc(O)c4O[C@H]2[C@@H](O)C=C[C@H]3[C@H]1C5.O=S(=O)(O)O [morphine, morphine sulfate]",clinical behavior during therapy,[1]; intrathecal,"restlessness, pain behaviors such as biting itself near the area of the catheter tip, and frequently laying down"
same,"necropsy, spinal cord",[1]; lesion 0.8 cm (L)×0.5 cm (W)×0.3 cm (Depth),cavitated lesion in the spinal cord in front of the catheter tip
same,"approximate equipotent dose, IV",[2]; iv,200
same,"approximate equipotent dose, PO",[2]; po,600
same,"approximate equipotent dose, IT",[2],10
same,Pain Score,"[3]; Sheep #604 Clint, 6 mg Morphine per day intrathecal, first infusion period, Dec. 7, 2001, day of study 0",60%
same,Pain Score,"[3]; Sheep #604 Clint, 6 mg Morphine per day intrathecal, first infusion period, Dec. 8, 2001, day of study 1",60%
same,Pain Score,"[3]; Sheep #604 Clint, 6 mg Morphine per day intrathecal, first infusion period, Dec. 9, 2001, day of study 2",60%
same,Pain Score,"[3]; Sheep #604 Clint, 6 mg Morphine per day intrathecal, first infusion period, Dec. 11, 2001, day of study 4",45%
same,Pain Score,"[3]; Sheep #604 Clint, 6 mg Morphine per day intrathecal, first infusion period, Dec. 12, 2001, day of study 5",30%
same,Pain Score,"[3]; Sheep #604 Clint, 6 mg Morphine per day intrathecal, first infusion period, Dec. 13, 2001, day of study 6",35%
same,Pain Score,"[3]; Sheep #604 Clint, 6 mg Morphine per day intrathecal, first infusion period, Dec. 14, 2001, day of study 7",40%
same,Pain Score,"[3]; Sheep #604 Clint, 6 mg Morphine per day intrathecal, first infusion period, Dec. 15, 2001, day of study 8",50%
same,Pain Score,"[3]; Sheep #604 Clint, 6 mg Morphine per day intrathecal, first infusion period, Dec. 16, 2001, day of study 9",40%
same,Pain Score,"[3]; Sheep #604 Clint, 6 mg Morphine per day intrathecal, first infusion period, Dec. 17, 2001, day of study 10",33%
same,Pain Score,"[3]; Sheep #604 Clint, 6 mg Morphine per day intrathecal, first infusion period, Dec. 18, 2001, day of study 11",35%
same,Pain Score,"[3]; Sheep #604 Clint, 6 mg Morphine per day intrathecal, first infusion period, Dec. 19, 2001, day of study 12",35%
same,Pain Score,"[3]; Sheep #604 Clint, 6 mg Morphine per day intrathecal, first infusion period, Dec. 20, 2001, day of study printed 0, changed to saline at 1:30 PM",33%
same,Pain Score,"[3]; Sheep #604 Clint, 6 mg Morphine per day intrathecal, second infusion period after saline, Dec. 29, 2001, day of study 1",50%
same,Pain Score,"[3]; Sheep #604 Clint, 6 mg Morphine per day intrathecal, second infusion period after saline, Dec. 30, 2001, day of study 2",40%
same,Pain Score,"[3]; Sheep #604 Clint, 6 mg Morphine per day intrathecal, second infusion period after saline, Dec. 31, 2001, day of study 3",38%
same,Pain Score,"[3]; Sheep #604 Clint, 6 mg Morphine per day intrathecal, second infusion period after saline, Jan. 1, 2002, day of study 4",40%
same,Pain Score,"[3]; Sheep #604 Clint, 6 mg Morphine per day intrathecal, second infusion period after saline, Jan. 2, 2002, day of study 5",30%
same,Pain Score,"[3]; Sheep #604 Clint, 6 mg Morphine per day intrathecal, second infusion period after saline, Jan. 3, 2002, day of study 6",33%
same,Pain Score,"[3]; Sheep #604 Clint, 6 mg Morphine per day intrathecal, second infusion period after saline, Jan. 4, 2002, day of study 7",30%
same,Pain Score,"[3]; Sheep #604 Clint, 6 mg Morphine per day intrathecal, second infusion period after saline, Jan. 5, 2002, day of study 8",30%
same,Pain Score,"[3]; Sheep #604 Clint, 6 mg Morphine per day intrathecal, second infusion period after saline, Jan. 6, 2002, day of study 9",30%
same,Pain Score,"[3]; Sheep #604 Clint, 6 mg Morphine per day intrathecal, second infusion period after saline, Jan. 7, 2002, day of study 10",30%
same,Pain Score,"[3]; Sheep #604 Clint, 6 mg Morphine per day intrathecal, second infusion period after saline, Jan. 8, 2002, day of study 11",30%
same,Pain Score,"[3]; Sheep #604 Clint, 6 mg Morphine per day intrathecal, second infusion period after saline, Jan. 9, 2002, day of study 12, pump then refilled with saline at 9:44 AM",15%
same,average pain score,"[3]; sheep #604 Clint, first 13 days of infusion at 6 mg/day",43%
same,average pain scores,"[3]; sheep #604 Clint, later infusions begun with either morphine or saline",30-50%
same,average pain score,"[3]; sheep #980 Dudley, 1 mg/day gradually increased to 6 mg/day",76%
same,Pain Score,"[3]; sheep #980 Dudley, 6.5 mg/day after 13 days of treatment",20%
